{"source": "paper PMC12339982", "about": "(Nature Communications, 2025)", "key": {"[1]": {"molecular_target": "T1, TauT L306A mutant (Homo sapiens, UniProt P31641, L306A)", "T1 sequence (P31641 1-620 L306A)": "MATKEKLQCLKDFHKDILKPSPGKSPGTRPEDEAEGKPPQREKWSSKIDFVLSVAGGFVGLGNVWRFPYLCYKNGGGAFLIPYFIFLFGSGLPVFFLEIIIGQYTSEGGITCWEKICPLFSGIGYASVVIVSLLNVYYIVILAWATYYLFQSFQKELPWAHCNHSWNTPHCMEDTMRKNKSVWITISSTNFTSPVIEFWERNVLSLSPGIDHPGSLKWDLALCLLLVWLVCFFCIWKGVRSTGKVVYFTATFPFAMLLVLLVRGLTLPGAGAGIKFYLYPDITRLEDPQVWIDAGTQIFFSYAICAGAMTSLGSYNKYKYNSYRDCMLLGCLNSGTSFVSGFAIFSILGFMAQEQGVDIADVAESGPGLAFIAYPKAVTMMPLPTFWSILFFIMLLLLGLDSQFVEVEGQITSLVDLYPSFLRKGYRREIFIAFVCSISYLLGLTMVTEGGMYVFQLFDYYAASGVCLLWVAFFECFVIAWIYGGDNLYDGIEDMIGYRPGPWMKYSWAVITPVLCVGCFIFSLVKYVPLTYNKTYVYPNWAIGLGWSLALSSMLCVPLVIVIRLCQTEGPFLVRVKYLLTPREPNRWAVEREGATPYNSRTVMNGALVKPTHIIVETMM", "assay": "MST binding, TauT L306A", "conditions": "mean ± s.e.m., n=3"}, "[2]": {"molecular_target": "T2, TauT^WT and variants (Homo sapiens, UniProt P31641, E406C)", "T2 sequence (P31641 1-620 E406C)": "T1 sequence (P31641 1-620 L306A) with A306L, E406C", "assay": "[3H]γ-aminobutyric acid uptake by TauT^WT and variants in HEK293T cells", "assay_type": "cell-based", "conditions": "mutation Glu406Cys"}, "[3]": {"molecular_target": "T3, TauT^WT and variants (Homo sapiens, UniProt P31641, L134C)", "T3 sequence (P31641 1-620 L134C)": "T1 sequence (P31641 1-620 L306A) with L134C, A306L", "assay": "[3H]taurine uptake", "assay_type": "cell-based", "conditions": "mutation Leu134Cys"}, "[4]": {"tested_on": "TauT^WT and variants", "assay": "[3H]taurine uptake", "assay_type": "cell-based, human"}, "[5]": {"molecular_target": "T4, TauT S402A mutant (Homo sapiens, UniProt P31641, S402A)", "T4 sequence (P31641 1-620 S402A)": "T1 sequence (P31641 1-620 L306A) with A306L, S402A", "assay": "MST binding, TauT S402A", "conditions": "mean ± s.e.m., n=3"}}, "note": "Substitutions are numbered along the chain they refer to.", "data": [{"molecule": "[H]/N=C(/N)NCC(=O)O", "note": "[GAA, guanidinoacetate]", "values": [{"measurement": "Kd (MST)", "setting": "[1]", "value": "drastic loss of GAA binding affinity"}]}, {"molecule": "NCCCC(=O)O", "note": "[GABA, γ-aminobutyric acid]", "values": [{"measurement": "transport activity of GABA", "setting": "[2]", "value": "significant increase in the transport activity"}]}, {"molecule": "NCCS(=O)(=O)O", "note": "[Taurine, taurine]", "values": [{"measurement": "transport activity of taurine", "setting": "[3]", "value": "significantly lower transport activity"}, {"measurement": "taurine transport activity", "setting": "[4]; Asn63, Ser301, Asn333 substituted with alanine or aspartate (Na1 site)", "value": "complete loss of function"}, {"measurement": "transport activity for taurine", "setting": "[4]; amino acid substitutions in Gly57, Phe58, Leu306", "value": "decrease in transport activity"}, {"measurement": "taurine transport activity", "setting": "[4]; mutations in Asp401 and Ser402 (Na2 site)", "value": "weaken the substrate transport function"}, {"measurement": "Kd (MST)", "setting": "[5]", "value": "undetectable binding"}]}]}
